Data set [1] deals with T1, OCT2 (Homo sapiens, UniProt O15244).
T1 sequence (O15244 1-555): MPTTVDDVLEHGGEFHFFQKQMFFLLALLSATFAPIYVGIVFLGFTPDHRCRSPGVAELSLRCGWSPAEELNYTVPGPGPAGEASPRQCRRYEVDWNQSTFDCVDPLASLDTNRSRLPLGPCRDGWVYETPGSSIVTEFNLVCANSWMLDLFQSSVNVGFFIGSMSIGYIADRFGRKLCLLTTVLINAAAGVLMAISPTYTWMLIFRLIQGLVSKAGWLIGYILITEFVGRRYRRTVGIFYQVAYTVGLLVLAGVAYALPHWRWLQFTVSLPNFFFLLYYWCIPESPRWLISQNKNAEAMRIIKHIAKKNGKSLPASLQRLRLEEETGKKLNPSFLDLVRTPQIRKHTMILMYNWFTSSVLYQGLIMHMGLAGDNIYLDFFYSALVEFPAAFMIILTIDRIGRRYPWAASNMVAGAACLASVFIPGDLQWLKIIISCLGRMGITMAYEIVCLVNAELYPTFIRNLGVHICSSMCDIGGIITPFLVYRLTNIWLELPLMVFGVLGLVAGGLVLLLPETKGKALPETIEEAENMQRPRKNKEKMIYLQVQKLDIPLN
Kind of data set: Cmax,u/IC50 or Cmax/IC50,app ratio for clinically relevant inhibition of OCT2-mediated oxaliplatin uptake. On the set-up: expressed in transfected cells; host or cells: MDCK-II (Madin-Darby canine kidney type II). An excerpt:
The FDA has published guidance in predicting if a drug is likely to be a transporter inhibitor in clinics by using data attained in in vitro models. Cmax,u denotes the maximum free, unbound plasma concentration of a drug. […] Thus, characteristics of the in vitro model may be used to predict in vivo effectiveness.

A further data set has as its target T2, OCT1 (Homo sapiens, UniProt O15245).
T2 sequence (O15245 1-554): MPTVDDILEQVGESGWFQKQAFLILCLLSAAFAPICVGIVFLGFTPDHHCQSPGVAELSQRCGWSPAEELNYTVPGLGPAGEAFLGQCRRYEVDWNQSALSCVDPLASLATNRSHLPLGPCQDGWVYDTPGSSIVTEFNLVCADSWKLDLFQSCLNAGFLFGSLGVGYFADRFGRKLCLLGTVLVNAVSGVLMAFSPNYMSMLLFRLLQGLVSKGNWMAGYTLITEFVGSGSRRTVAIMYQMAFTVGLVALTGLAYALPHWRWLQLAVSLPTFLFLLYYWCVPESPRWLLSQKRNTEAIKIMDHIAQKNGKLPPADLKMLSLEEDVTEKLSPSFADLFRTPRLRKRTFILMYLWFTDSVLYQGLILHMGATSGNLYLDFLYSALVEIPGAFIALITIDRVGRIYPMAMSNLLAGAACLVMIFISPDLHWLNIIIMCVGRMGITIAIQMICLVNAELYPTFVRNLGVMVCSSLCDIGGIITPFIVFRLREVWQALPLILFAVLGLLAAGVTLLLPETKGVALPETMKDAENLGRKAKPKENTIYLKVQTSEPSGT
Kind of data set: Inhibition of OCT1-mediated oxaliplatin transport in human serum or 4% BSA HBSS.

The target in data set [2] is T1, OCT2. Kind of data set: Inhibition of OCT2-mediated metformin uptake in transfected MDCK-II cells.
The conditions of data set [3]: cited from earlier work; for Plasma protein binding (%): published data.
Data set [4] has as its target T1, OCT2. Kind of data set: Inhibition of OCT2-mediated oxaliplatin uptake in transfected MDCK-II cells (protein-free HBSS). The settings on record: for inhibition at 30 min, 5 μM / inhibition at 30 min, 50 μM / potency estimated from few doses at 30 min: human. An excerpt: Fully confluent MDCK cell monolayers were transfected with either cDNA plasmids encoding the human transporter to be tested or a GFP control. […] The cells were then washed with ice-cold PBS and lysed with 50:50 acetonitrile:H2O. Intracellular content of the substrate was quantified by LC/MS/MS or a MicroBeta radiometric plate reader.

The target in a further data set is T3, OCT3 (Homo sapiens, UniProt O75751).
T3 sequence (O75751 1-556): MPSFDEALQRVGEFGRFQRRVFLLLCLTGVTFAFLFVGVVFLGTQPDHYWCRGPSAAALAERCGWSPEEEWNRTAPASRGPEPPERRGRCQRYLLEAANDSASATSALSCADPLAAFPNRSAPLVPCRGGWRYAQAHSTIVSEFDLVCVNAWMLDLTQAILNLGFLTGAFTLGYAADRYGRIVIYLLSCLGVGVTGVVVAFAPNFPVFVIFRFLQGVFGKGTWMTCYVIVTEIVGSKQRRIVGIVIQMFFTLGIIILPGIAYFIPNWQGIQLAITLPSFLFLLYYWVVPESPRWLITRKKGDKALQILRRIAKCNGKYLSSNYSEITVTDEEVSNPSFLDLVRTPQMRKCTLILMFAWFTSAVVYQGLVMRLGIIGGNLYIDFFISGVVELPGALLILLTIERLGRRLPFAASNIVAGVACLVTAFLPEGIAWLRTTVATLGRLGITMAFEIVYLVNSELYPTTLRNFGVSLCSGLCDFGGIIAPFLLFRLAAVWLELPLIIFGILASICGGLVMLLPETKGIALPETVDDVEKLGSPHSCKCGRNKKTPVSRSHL
Briefly: Inhibition of OCT3-mediated oxaliplatin transport in human serum or 4% BSA HBSS.

The target in data set [5] is T1, OCT2. Kind of data set: Inhibition of OCT2-mediated oxaliplatin transport in 100% human serum or HBSS containing 4% BSA (IC50,app). To be noted: for fold higher potency for OCT2 over OCT1, OCT3, MATE1 and MATE2K in transporting oxaliplatin: from IC50,app of Table 4.
Data set [6] relates to MDCK cells expressing OCT2, MATE1 and MATE2K. Kind of data set: LDH cytotoxicity of oxaliplatin in MDCK-II triple-transporter model. To be noted: for effect on oxaliplatin induced cytotoxicity in OCT2 expressing cells: buflomedil 3 and 6 μM, dolutegravir 10 μM, erlotinib 6 μM, cimetidine 6 μM, FIG. 6.
Method: A triple-transporter model for OCT2(SLC22A2), MATE1(SLC47A1), and MATE2-K(SLC47A2) was created by transfecting fully confluent MDCK-II cell monolayers with DNA mixture containing the plasmids encoding OCT2, MATE1, and MATE-2K at concentrations of 40, 15, and 5 ng/μl, respectively. The OCT2 was expressed on the basolateral cell membrane, and MATE1 and MATE2-K were expressed on the apical side of the cells. […] The apical medium was adjusted to pH 6.7 with 25 mM of 2-(N-morpholino) ethanesulfonic acid (MES).
After removal of the media, a drug-free medium was added in both sides. After incubation 24 hours, the medium was collected, and the lactate dehydrogenase (LDH) activity in the medium was measured using an LDH cytotoxicity assay kit (G-Biosciences. St. Louis, Mo.; or Biochain, Newark, Calif.), according to the manufacturers' instructions. Cytotoxicity was evaluated by measuring the LDH activity in the medium.
Cytotoxicity was tested using the same procedure described above.
The mark [7] stands for this setting: 600 mg dosed IV bolus (FIG. 1B).
[8] abbreviates: read-out: Plasma peak total concentration Cmax, published clinical pharmacokinetic data.
[9] abbreviates: IC50,app (μM), apparent inhibition constant in 100% human serum or HBSS containing 4% BSA, OCT2-mediated oxaliplatin uptake.
Where [10] appears, read: OCT2 IC50, app (μM), 100% human serum or HBSS containing 4% BSA, 20 μM or 100 μM oxaliplatin.
Setting [11] is: MDCK-II cells transfected with human OCT2, probe oxaliplatin 10 μM.

Where two headings read alike, the source gives them in different places. Where only a bound is given, the exact number is not on record here.

With `Clc1ccc(COC(Cn2ccnc2)c2ccc(Cl)cc2Cl)c(Cl)c1` (stereo not shown) [Miconazole], the “Cmax/IC50, app ratio” value on OCT2 [1] (800 mg IV) was found to be 3.64. For the same compound, the 50% inhibitory concentration (IC50) against OCT1 came to 8.4 ± 1.5 µM; at OCT2 [2], 142 µM; at OCT2 [4], 1.55 µM; against OCT3, 49.2 ± 22.6 µM; on OCT2 [5] (setting [9]), 3.3 µM; on OCT2 [5] (setting [10]) it was 3.3 ± 0.6 µM. Also, the “fold less potent in inhibiting OCT2-mediated metformin transport than ASP+ and oxaliplatin transport” value on OCT2 [2] (comparison of Table 1 potencies) is recorded as “approximately 70 fold”. Also, the “decrease of plasma concentration at 3 hour” value in data set [3] (setting [7]) is on record as “nearly five-fold decrease at 3 hour”. Also, in data set [3] (setting [7]), the “plasma half-time (initial phase)” value was 0.4 h. Also, in data set [3] (800 mg IV), the “Mean Cmax” value is 5 µg/mL. In data set [3] (800 mg IV), the “Mean T1/2 (hour), distribution phase” value is 0.4 (dis- hour. Moreover, the “Mean T1/2 (hour), terminal phase” value in data set [3] (800 mg IV) is recorded as “phase), 8.9 hour”. For the same compound, in data set [3], the “Plasma protein binding (%)” value is listed as 92%. In addition, the Cmax in data set [3] (read-out: Mean Cmax, 800 mg IV) is 12 µM; in data set [3] (setting [8]), 14.9 µM. The inhibition at 30 min, 5 μM on OCT2 [4] is 39%. The inhibition at 30 min, 50 μM against OCT2 [4] was 97%. On OCT2 [4] (IC50 (μM) (substrate Oxaliplatin)), the potency estimated from few doses at 30 min is 1.55 µM. For the same compound, the “fold higher potency for OCT2 over OCT1, OCT3, MATE1 and MATE2K in transporting oxaliplatin” value at OCT2 [5] is on record as “at least 2 fold”.
Turning to `C[C@@H]1CCO[C@H]2Cn3cc(C(=O)NCc4ccc(F)cc4F)c(=O)c(O)c3C(=O)N12` [Dolutegravir], the “Cmax/IC50, app ratio” value at OCT2 [1] (50 mg po qd, day 10) is 4.36; at OCT2 [1] (50 mg po qd, single dose) it was 3.23. Further, the IC50 against OCT1 is over 100 µM; at OCT2 [2], 0.54 ± 0.09 µM; against OCT2 [4], 0.2 µM; against OCT3 it was over 100 µM; on OCT2 [5] (setting [9]), 3.37 µM; on OCT2 [5] (setting [10]), 3.4 ± 1 µM. In data set [6], the “effect on oxaliplatin induced cytotoxicity in OCT2 expressing cells” value is given as “significantly reduced oxaliplatin (OXA) induced cytotoxicity”. The “Mean Cmax” value is 6.16 µg/mL in data set [3] (50 mg po qd, day 10) and 4.56 µg/mL in data set [3] (50 mg po qd, single dose). The “Mean T1/2” value is about 15 h in data set [3] (50 mg po qd, day 10) and 14.2 h in data set [3] (50 mg po qd, single dose). The “Plasma protein binding (%)” value in data set [3] is reported as 99.5%. Also, the Cmax was 14.7 µM in data set [3] (read-out: Mean Cmax, 50 mg po qd, day 10); 10.9 µM in data set [3] (read-out: Mean Cmax, 50 mg po qd, single dose); 10.9 µM in data set [3] (setting [8]). Further, the inhibition at 30 min, 5 μM against OCT2 [4] (setting [11]) worked out at 83%. For the same compound, on OCT2 [4] (setting [11]), the inhibition at 30 min, 50 μM was found to be 97%. The potency estimated from few doses at 30 min on OCT2 [4] (setting [11]) is 0.2 µM.
Consider `COc1cc(OC)c(C(=O)CCCN2CCCC2)c(OC)c1` [Buflomedil, 4-pyrrolidin-1-yl-1-(2,4,6-trimethoxyphenyl)butan-1-one], for which the “Cmax/IC50, app ratio” value at OCT2 [1] (300 mg po, bid) is given as 4.69; on OCT2 [1] (600 mg slow-release, po, qd), 4.97. Moreover, the IC50 came to 34.6 ± 7.6 µM against OCT1; 5.7 ± 0.8 µM on OCT2 [2]; 6 µM in data set [6] (Canis lupus familiaris, MDCK, read-out: IC50 for reduction of oxaliplatin-induced cytotoxicity); 0.78 µM against OCT2 [4]; 28 ± 11.4 µM against OCT3; 1.45 µM on OCT2 [5] (setting [9]). The compound also came in with a half-inhibitory concentration (IC50) against OCT2 [5] (setting [10]) of 1.4 ± 0.2 µM. Moreover, the “reduction of cytotoxicity of 100 μM oxaliplatin” value in data set [6] (buflomedil 3-1000 μM, LDH release, FIG. 5) is “reduced cytotoxicity of 100 μM Oxaliplatin in OCT2-expressing cells in a dose-dependent fashion”. The “effect on oxaliplatin induced cytotoxicity in OCT2 expressing cells” value in data set [6] is reported as “significantly reduced oxaliplatin (OXA) induced cytotoxicity”. The “Mean Cmax” value in data set [3] (300 mg po, bid) is 2.1 µg/mL; in data set [3] (600 mg slow-release, po, qd), 2.2 µg/mL. Moreover, the “Mean T1/2” value in data set [3] (300 mg po, bid) was 3.4 h; in data set [3] (600 mg slow-release, po, qd) it was over 10 h. The average clearance in data set [3] (Group A patients) was 292 mL/min; in data set [3] (Group B patients, seniors (average age 82 yrs) with impaired renal clearance), 99.5 mL/min. Moreover, the “Plasma protein binding (%)” value in data set [3] was 70%. Also, the Cmax in data set [3] (read-out: Mean Cmax, 300 mg po, bid) was 6.8 µM; in data set [3] (read-out: Mean Cmax, 600 mg slow-release, po, qd), 7.2 µM; in data set [3] (setting [8]), 6.8 µM. Besides, the inhibition at 30 min, 5 μM against OCT2 [4] came to 87%. Besides, on OCT2 [4], the inhibition at 30 min, 50 μM was 105%. Moreover, on OCT2 [5], the “fold higher potency for OCT2 over OCT1, OCT3, MATE1 and MATE2K in transporting oxaliplatin” value is reported as “at least 20 fold”.

(Values after US11197862B2, “Methods of preventing toxicity of platinum drugs” (XOMICS BIOPHARMA, INC., priority 2015, dated 2021).)
